Residue numbers refer to the chain shown, from its start.
Tests used:
Assay in all cases: Two-electrode voltage clamp, ACh-dependent (m2R-dependent) K+ current activation
Type in all cases: cell-based
Kir3.2 E236A = target: T1, Kir3.2 E236A (Mus musculus, UniProt P48542, E236A); conditions: Kir3.2 E236A with porcine m2R in Xenopus oocytes; −120 mV; Hill equation fit
T1 sequence (P48542 19-425 E236A): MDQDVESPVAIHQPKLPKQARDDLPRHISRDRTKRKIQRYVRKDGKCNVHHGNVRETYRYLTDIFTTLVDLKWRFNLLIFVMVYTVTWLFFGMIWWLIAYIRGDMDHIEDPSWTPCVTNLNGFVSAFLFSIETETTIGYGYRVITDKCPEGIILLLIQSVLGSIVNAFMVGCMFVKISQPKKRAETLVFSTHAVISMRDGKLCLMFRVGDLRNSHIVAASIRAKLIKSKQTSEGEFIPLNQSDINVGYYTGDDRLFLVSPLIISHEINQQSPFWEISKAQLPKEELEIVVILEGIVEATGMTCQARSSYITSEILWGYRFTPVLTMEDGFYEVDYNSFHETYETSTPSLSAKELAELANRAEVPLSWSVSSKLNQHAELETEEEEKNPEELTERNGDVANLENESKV
T1 sequence (P06199 1-466 partner): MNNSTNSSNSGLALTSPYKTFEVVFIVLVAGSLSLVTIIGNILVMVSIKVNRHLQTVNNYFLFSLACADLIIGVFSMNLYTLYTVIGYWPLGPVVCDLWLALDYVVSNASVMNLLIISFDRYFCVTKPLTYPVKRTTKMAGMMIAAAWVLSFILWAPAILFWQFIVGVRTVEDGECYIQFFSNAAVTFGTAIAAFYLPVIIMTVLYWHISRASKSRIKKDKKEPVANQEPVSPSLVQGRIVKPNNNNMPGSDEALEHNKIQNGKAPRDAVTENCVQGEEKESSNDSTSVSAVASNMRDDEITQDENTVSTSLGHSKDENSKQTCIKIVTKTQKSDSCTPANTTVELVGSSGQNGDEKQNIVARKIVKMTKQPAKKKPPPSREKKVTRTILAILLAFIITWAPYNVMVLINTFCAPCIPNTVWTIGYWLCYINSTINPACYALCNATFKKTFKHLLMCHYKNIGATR
Description: (§1) The mouse Kir3.2d isoform was subjected to functional analyses. The amino acid numbers correspond to the longest mouse Kir3.2 isoform. Point mutations were introduced using the QuikChange site-directed mutagenesis kit (Stratagene, La Jolla, CA), and the presence of the mutations was confirmed by direct DNA sequencing. The care of Xenopus laevis was in accordance with the guideline of the Institute of Experimental Animal Sciences, Osaka University. The protocol was approved by the Animal Experiment Committee of Osaka University. The frogs were deeply anesthetized by immersing in 0.2% tricaine methanesulfonate for 20 min at 18°C. A portion of an ovary lobe was surgically removed and incubated with collagenase to remove follicular cells. The oocytes were injected with the cRNAs of Kir3.2 and porcine m2-muscarinic receptor (m2R), and maintained in modified Barth’s solution at 18°C with daily solution changes. Electrophysiological studies were undertaken 48–72 h later at room temperature (20–25°C). Two-electrode voltage-clamp recordings from oocytes were performed using a GeneClamp 500B amplifier (Axon Instruments, Sunnyvale, CA). […] The bath solution contained 40 mM KCl, 50 mM NaCl, 3 mM MgCl2, 0.15 mM niflumic acid, and 5 mM HEPES-KOH (pH 7.4). The currents were recorded in the absence or presence of various concentrations of acetylcholine (ACh). Ba^2+ (3 mM) was added at the end of the recording to estimate the endogenous leak current. The data are expressed as mean values ± standard error of the mean. For the quantitative estimation of ACh-dependent current responses of the wild-type (WT) and mutant channels, the current amplitudes at the end of test pulses at each ACh concentration ([ACh]) were fitted using the following equation:
(§2) I=min+[(max−min)/(1+(EC50/[ACh])^nH)]
(§3) where I is the current amplitude measured at the [ACh], n H is the Hill coefficient, and EC50 is the concentration that induces 50% of the maximal response. […] The values of n H and EC50 were calculated using a non-linear least-squares best fit (SigmaPlot 9; Systat Software). Statistical analyses were performed by one-way ANOVA with post-hoc tests.

Kir3.2 M313R = target: T2, Kir3.2 M313R (Mus musculus, UniProt P48542, I313R); conditions: Kir3.2 M313R with porcine m2R in Xenopus oocytes; −120 mV; Hill equation fit, min not zero
T2 sequence (P48542 19-425 I313R): T1 sequence (P48542 19-425 E236A) with A218E, I295R
T2 sequence (P06199 1-466 partner): T1 sequence (P06199 1-466 partner)
Description: as §1, §2, §3

Kir3.2 E236N = target: T3, Kir3.2 E236N (Mus musculus, UniProt P48542, E236N); conditions: Kir3.2 E236N with porcine m2R in Xenopus oocytes; −120 mV; Hill equation fit
T3 sequence (P48542 19-425 E236N): T1 sequence (P48542 19-425 E236A) with A218N
T3 sequence (P06199 1-466 partner): T1 sequence (P06199 1-466 partner)
Description: as §1, §2, §3

Work on CC(=O)OCC[N+](C)(C)C [ACh, acetylcholine] yielded a Hill coefficient (Kir3.2 E236A) of 1.12 ± 0.04, a Hill coefficient (Kir3.2 M313R) of 0.52 ± 0.08 and a Hill coefficient (Kir3.2 E236N) of 0.82 ± 0.08.

Source: PMC3823594, “Conformational Changes Underlying Pore Dilation in the Cytoplasmic Domain of Mammalian Inward Rectifier K^+ Channels” (PLoS ONE, 2013)
